Experiments:
[1] = system: HepG2; assay: Genotoxicity in human HepG2 assessed as mitotic index at 188 uM measured after 24 hrs by micronucleus test (reference value: 61 to 108); format: toxicity, cell-based; conditions: hepg2, 24 h
[2] = Toxicity in Salmonella typhimurium YG1024 at 5 to 100 ug/plate after 20 mins by colony counting method; conditions: salmonella enterica subsp. enterica serovar typhimurium, dose 5-100 µg
[3] = system: RAW264.7; assay: Cytotoxicity against mouse RAW264.7 cells at 18.8 to 376 uM measured after 24 hrs by LDH assay; format: cell-based; conditions: raw264.7, 24 h, dose 18.8-376 µM
[4] = system: HepG2; assay: Genotoxicity in human HepG2 assessed as mitotic index at 3760 uM measured after 24 hrs by micronucleus test (reference value: 61 to 108); format: toxicity, cell-based; conditions: hepg2, 24 h
[5] = Mutagenicity in Salmonella typhimurium TA100 assessed as revertant/ug measured after 20 mins in presence of S9 fraction by microsome assay; format: toxicity, subcellular; conditions: salmonella enterica subsp. enterica serovar typhimurium, s9, 20 min
[6] = Mutagenicity in Salmonella typhimurium YG1024 at 5 to 100 ug/plate after 20 mins by microsome assay; format: toxicity; conditions: salmonella enterica subsp. enterica serovar typhimurium, microsomes, dose 5-100 µg
[7] = system: HepG2; assay: Cytotoxicity against human HepG2 cells at 376 uM measured after 24 hrs by LDH assay; format: cell-based; conditions: hepg2, 24 h
[8] = Mutagenicity in Salmonella typhimurium TA98 measured after 20 mins in presence of S9 fraction by microsome assay; format: toxicity, subcellular; conditions: salmonella enterica subsp. enterica serovar typhimurium, s9, 20 min, dose 5-100 µg
[9] = Genotoxicity in human HepG2 assessed as survival at 376 uM measured after 24 hrs by micronucleus test (reference value: 100%); format: toxicity, cell-based; conditions: HepG2 cells, read-out: Survival
[10] = Selectivity index, ratio of GI50 for human HepG2 cells assessed as reduction in cell viability measured after 24 hrs by WST1 assay to IC50 for antitrypanosomal activity against bloodstream form of Trypanosoma cruzi Y trypomastigotes infected in African green monkey Vero cells; format: toxicity; conditions: read-out: Selectivity Index
[11] = system: RAW264.7; assay: Genotoxicity in mouse RAW264.7 cells assessed as number of micronucleated cells at 1880 uM measured after 24 hrs by micronucleus test (reference value: 12 to 15); format: toxicity, cell-based; conditions: raw264.7, 24 h
[12] = Mutagenicity in Salmonella typhimurium YG1021 at 5 to 100 ug/plate after 20 mins by microsome assay; format: toxicity; conditions: salmonella enterica subsp. enterica serovar typhimurium, microsomes
[13] = Mutagenicity in Salmonella typhimurium TA102 measured after 20 mins in absence of S9 fraction by microsome assay; format: toxicity; conditions: salmonella enterica subsp. enterica serovar typhimurium, microsomes, dose 5-100 µg
[14] = Cytotoxicity against mouse RAW264.7 cells assessed as reduction in cell viability measured after 24 hrs by WST1 assay; format: cell-based
[15] = Genotoxicity in mouse RAW264.7 cells assessed as survival at 188 uM measured after 24 hrs by micronucleus test (reference value: 100%); format: toxicity, cell-based; conditions: read-out: Survival
[16] = Selectivity index, ratio of GI50 for mouse RAW264.7 cells assessed as reduction in cell viability measured after 24 hrs by WST1 assay to IC50 for antitrypanosomal activity against bloodstream form of Trypanosoma cruzi Y trypomastigotes infected in African green monkey Vero cells; format: toxicity; conditions: read-out: Selectivity Index
[17] = Mutagenicity in Salmonella typhimurium TA97 measured after 20 mins in absence of S9 fraction by microsome assay; format: toxicity; conditions: salmonella enterica subsp. enterica serovar typhimurium, microsomes, dose 5-100 µg
[18] = system: HepG2; assay: Genotoxicity in human HepG2 assessed as number of micronucleated cells at 1880 uM measured after 24 hrs by micronucleus test (reference value: 14 to 18); format: toxicity, cell-based; conditions: hepg2, 24 h
[19] = Genotoxicity in mouse RAW264.7 cells assessed as survival at 1880 uM measured after 24 hrs by micronucleus test (reference value: 100%); format: toxicity, cell-based; conditions: read-out: Survival
[20] = system: HepG2; assay: Genotoxicity in human HepG2 assessed as number of micronucleated cells at 188 uM measured after 24 hrs by micronucleus test (reference value: 14 to 18); format: toxicity, cell-based; conditions: hepg2, 24 h
[21] = Mutagenicity in Salmonella typhimurium TA100 measured after 20 mins in absence of S9 fraction by microsome assay; format: toxicity; conditions: salmonella enterica subsp. enterica serovar typhimurium, microsomes, dose 5-100 µg
[22] = system: HepG2; assay: Genotoxicity in human HepG2 assessed as number of micronucleated cells at 3760 uM measured after 24 hrs by micronucleus test (reference value: 14 to 18); format: toxicity, cell-based; conditions: hepg2, 24 h
[23] = Genotoxicity in mouse RAW264.7 cells assessed as survival at 3760 uM measured after 24 hrs by micronucleus test (reference value: 100%); format: toxicity, cell-based; conditions: read-out: Survival
[24] = system: RAW264.7; assay: Genotoxicity in mouse RAW264.7 cells assessed as mitotic index at 376 uM measured after 24 hrs by micronucleus test (reference value: 40 to 249); format: toxicity, cell-based; conditions: raw264.7, 24 h
[25] = system: RAW264.7; assay: Genotoxicity in mouse RAW264.7 cells assessed as mitotic index at 1880 uM measured after 24 hrs by micronucleus test (reference value: 40 to 249); format: toxicity, cell-based; conditions: raw264.7, 24 h
[26] = system: HepG2; assay: Genotoxicity in human HepG2 assessed as mitotic index at 376 uM measured after 24 hrs by micronucleus test (reference value: 61 to 108); format: toxicity, cell-based; conditions: hepg2, 24 h
[27] = Mutagenicity in Salmonella typhimurium TA97 measured after 20 mins in presence of S9 fraction by microsome assay; format: toxicity, subcellular; conditions: salmonella enterica subsp. enterica serovar typhimurium, s9, 20 min, dose 5-100 µg
[28] = system: RAW264.7; assay: Genotoxicity in mouse RAW264.7 cells assessed as number of micronucleated cells at 188 uM measured after 24 hrs by micronucleus test (reference value: 12 to 15); format: toxicity, cell-based; conditions: raw264.7, 24 h
[29] = system: HepG2; assay: Genotoxicity in human HepG2 assessed as number of micronucleated cells at 376 uM measured after 24 hrs by micronucleus test (reference value: 14 to 18); format: toxicity, cell-based; conditions: hepg2, 24 h
[30] = Toxicity in Salmonella typhimurium YG1021 at 5 to 100 ug/plate after 20 mins by colony counting method; conditions: salmonella enterica subsp. enterica serovar typhimurium, dose 5-100 µg
[31] = system: RAW264.7; assay: Genotoxicity in mouse RAW264.7 cells assessed as mitotic index at 3760 uM measured after 24 hrs by micronucleus test (reference value: 40 to 249); format: toxicity, cell-based; conditions: raw264.7, 24 h
[32] = Mutagenicity in Salmonella typhimurium TA98 measured after 20 mins in absence of S9 fraction by microsome assay; format: toxicity; conditions: salmonella enterica subsp. enterica serovar typhimurium, microsomes, dose 5-100 µg
[33] = Cytotoxicity against human HepG2 cells assessed as reduction in cell viability measured after 24 hrs by WST1 assay; format: cell-based
[34] = system: RAW264.7; assay: Genotoxicity in mouse RAW264.7 cells assessed as number of micronucleated cells at 376 uM measured after 24 hrs by micronucleus test (reference value: 12 to 15); format: toxicity, cell-based; conditions: raw264.7, 24 h
[35] = Mutagenicity in Salmonella typhimurium TA97 assessed as revertant/ug measured after 20 mins in absence of S9 fraction by microsome assay; format: toxicity; conditions: salmonella enterica subsp. enterica serovar typhimurium, microsomes
[36] = Mutagenicity in Salmonella typhimurium TA100 assessed as revertant/ug measured after 20 mins in absence of S9 fraction by microsome assay; format: toxicity; conditions: salmonella enterica subsp. enterica serovar typhimurium, microsomes
[37] = Genotoxicity in mouse RAW264.7 cells assessed as survival at 376 uM measured after 24 hrs by micronucleus test (reference value: 100%); format: toxicity, cell-based; conditions: read-out: Survival
[38] = system: HepG2; assay: Genotoxicity in human HepG2 assessed as mitotic index at 1880 uM measured after 24 hrs by micronucleus test (reference value: 61 to 108); format: toxicity, cell-based; conditions: hepg2, 24 h
[39] = Selectivity index, ratio of GI50 for human HepG2 cells assessed as reduction in cell viability measured after 24 hrs by WST1 assay to IC50 for antitrypanosomal activity against Trypanosoma cruzi Y axenic amastigotes infected in African green monkey Vero cells; format: toxicity; conditions: read-out: Selectivity Index
[40] = system: RAW264.7; assay: Genotoxicity in mouse RAW264.7 cells assessed as number of micronucleated cells at 3760 uM measured after 24 hrs by micronucleus test (reference value: 12 to 15); format: toxicity, cell-based; conditions: raw264.7, 24 h
[41] = Mutagenicity in Salmonella typhimurium TA100 measured after 20 mins in presence of S9 fraction by microsome assay; format: toxicity, subcellular; conditions: salmonella enterica subsp. enterica serovar typhimurium, s9, 20 min, dose 5-100 µg
[42] = Selectivity index, ratio of GI50 for mouse RAW264.7 cells assessed as reduction in cell viability measured after 24 hrs by WST1 assay to IC50 for antitrypanosomal activity against Trypanosoma cruzi Y axenic amastigotes infected in African green monkey Vero cells; format: toxicity; conditions: read-out: Selectivity Index
[43] = Genotoxicity in human HepG2 assessed as survival at 1880 uM measured after 24 hrs by micronucleus test (reference value: 100%); format: toxicity, cell-based; conditions: HepG2 cells, read-out: Survival
[44] = Mutagenicity in Salmonella typhimurium TA102 measured after 20 mins in presence of S9 fraction by microsome assay; format: toxicity, subcellular; conditions: salmonella enterica subsp. enterica serovar typhimurium, s9, 20 min, dose 5-100 µg
[45] = Genotoxicity in human HepG2 assessed as survival at 3760 uM measured after 24 hrs by micronucleus test (reference value: 100%); format: toxicity, cell-based; conditions: HepG2 cells, read-out: Survival
[46] = system: Trypanosoma cruzi; assay: Antitrypanosomal activity against Trypanosoma cruzi Y axenic amastigotes infected in African green monkey Vero cells after 24 hrs by MTT assay; format: functional, organism-based
[47] = system: Trypanosoma cruzi; assay: Antitrypanosomal activity against bloodstream form of Trypanosoma cruzi Y trypomastigotes infected in African green monkey Vero cells assessed as increase in parasite lysis measured after 24 hrs by Neubauer chamber method; format: functional, organism-based
[48] = system: RAW264.7; assay: Genotoxicity in mouse RAW264.7 cells assessed as mitotic index at 188 uM measured after 24 hrs by micronucleus test (reference value: 40 to 249); format: toxicity, cell-based; conditions: raw264.7, 24 h
[49] = Mutagenicity in Salmonella typhimurium TA97 assessed as revertant/ug measured after 20 mins in presence of S9 fraction by microsome assay; format: toxicity, subcellular; conditions: salmonella enterica subsp. enterica serovar typhimurium, s9, 20 min
[50] = Genotoxicity in human HepG2 assessed as survival at 188 uM measured after 24 hrs by micronucleus test (reference value: 100%); format: toxicity, cell-based; conditions: HepG2 cells, read-out: Survival

Structure (SMILES): CCOC(=O)c1cn(-c2c([N+](=O)[O-])ncn2C)nn1
- Activity_index [1]: 55
- Activity [2]: Toxic
- Activity [3]: Non-Toxic
- Activity_index [4]: 52
- Activity [5]: 3.36 revertants/µg
- Activity [6]: Non-Toxic
- Activity [7]: Toxic
- Activity [8]: Non-Toxic
- viability at 24 h, 376 µM [9]: 99%
- selectivity ratio at 24 h [10]: > 8.3
- Activity [11]: 13
- Activity [12]: Non-Toxic
- Activity [13]: Toxic
- GI50 at 24 h [14]: > 376 µM
- viability at 24 h, 188 µM [15]: 99%
- selectivity ratio at 24 h [16]: > 8.3
- Activity [17]: Toxic
- Activity [18]: 32
- viability at 24 h, 1880 µM [19]: 95%
- Activity [20]: 17
- Activity [21]: Toxic
- Activity [22]: 35
- viability at 24 h, 3760 µM [23]: 90%
- Activity_index [24]: 80
- Activity_index [25]: 100
- Activity_index [26]: 50
- Activity [27]: Toxic
- Activity [28]: 11
- Activity [29]: 21
- Activity [30]: Toxic
- Activity_index [31]: 78
- Activity [32]: Non-Toxic
- GI50 at 24 h [33]: > 376 µM
- Activity [34]: 10
- Activity [35]: 2.19 revertants/µg
- Activity [36]: 3.54 revertants/µg
- viability at 24 h, 376 µM [37]: 99%
- Activity_index [38]: 60
- selectivity ratio at 24 h [39]: > 0.95
- Activity [40]: 13
- Activity [41]: Toxic
- selectivity ratio at 24 h [42]: > 0.95
- viability at 24 h, 1880 µM [43]: 97%
- Activity [44]: Toxic
- viability at 24 h, 3760 µM [45]: 90%
- IC50 [46]: 393 µM
- IC50 [47]: 45.3 µM
- Activity_index [48]: 58
- Activity [49]: 0.714 µg
- viability at 24 h, 188 µM [50]: 99%

Structure (SMILES): O=C(Cn1ccnc1[N+](=O)[O-])NCc1ccccc1 [BENZNIDAZOLE]
- selectivity ratio at 24 h [10]: > 56
- GI50 at 24 h [14]: > 500 µM
- selectivity ratio at 24 h [16]: > 56
- GI50 at 24 h [33]: > 500 µM
- selectivity ratio at 24 h [39]: > 57
- selectivity ratio at 24 h [42]: > 57
- IC50 [46]: 8.7 µM
- IC50 [47]: 8.8 µM

Structure (SMILES): COC(=O)c1cn(-c2c([N+](=O)[O-])ncn2C)nn1
- IC50 [47]: 31.3 µM

Structure (SMILES): Cn1cnc([N+](=O)[O-])c1-n1cc(-c2ccccc2)nn1
- IC50 [47]: 25.2 µM

Structure (SMILES): Cn1cnc([N+](=O)[O-])c1-n1cc(-c2cccc(N)c2)nn1
- IC50 [47]: 41.2 µM

Structure (SMILES): Cn1cnc([N+](=O)[O-])c1-n1cccn1
- Activity [5]: 35.5 revertants/µg
- Activity [35]: 11.5 revertants/µg
- Activity [36]: 65.5 revertants/µg
- Activity [49]: Non-Toxic
